{"source": "patent US9862690B2", "about": "“Treatment of pulmonary and other conditions” (University of Pittsburgh—of the Commonwealth System of …, priority 2013, dated 2018)", "tested_on": "chronic hypoxia-induced pulmonary hypertension in mice", "experiment": "Chronic hypoxia-induced pulmonary hypertension model", "type": "in vivo", "details": "25 mg/kg nebulized during last 10 days of 3 weeks hypoxia", "protocol": "CH-induced pulmonary hypertension was produced in mice by exposing them to chronic hypoxia (CH; FIO2 10%) or room air (N; control) for 3 weeks. During the last 10 days of exposure, PB141 (25 mg/kg) or vehicle (saline) was nebulized and delivered to cage air via a micropump nebulizer. Twenty-four hours following the last nebulization mice were anesthetized and the right internal jugular vein of each mouse was surgically exposed and cannulated with a pressure transducer that was advanced to record right ventricular pressure, then advanced further to measure pulmonary arterial pressure: (top left) mean pulmonary arterial pressure; (top right) right ventricular systolic pressure (RVSP); (bottom left) […]; (bottom right) right ventricular hypertrophy. Data are representative of one of two independent experiments with n=4-6 mice per group.\nCH-induced pulmonary hypertension was produced in mice by exposing them to CH (FIO2 10%) or room air for 3 weeks. During the last 10 days of exposure, PB141 (25 mg/kg) or vehicle (saline) was nebulized and delivered to cage air via a micropump nebulizer. Twenty-four hours following the last nebulization lung samples were obtained. Graphs show medial wall thickness of a-SMA-positive acinar blood vessels and percent of non-muscularized, partially muscularized, and fully muscularized small vessels. Data are representative of one of two independent experiments with n=4-6 mice per group.\nPulmonary hypertension was induced in mice by exposing them to chronic hypoxia (FiO2 10%) for 3 weeks. Control mice breathed room air during the last 10 days of exposure, PB141 (25 mg/kg) or vehicle (saline) was nebulized into the cage air for 30 min via a nebulizer.\nTwenty-four hours following the last PB141 administration, mice were anesthetized, and the right internal jugular vein of each mouse was surgically exposed and cannulated with a pressure transducer that was advanced to record right ventricular systolic pressure (RVSP), which is elevated in pulmonary hypertension. […] The heart was then excised and the right ventricle was separated from the left ventricle (including the septum). Each ventricle was weighted separately.\nTwenty-four hours following the last PB141 administration, lung samples were obtained. Immunostaining for α-SMA, a key marker in pulmonary hypertension, was performed in paraffin sections of lung and the sections were examined microscopically. […] All these measures of vascular wall remodeling in small pulmonary vessels, the pathophysiology underlying pulmonary hypertension, were reduced by PB141 treatment (FIG. 20).", "data": [{"smiles": "CC(=O)N[C@@H](CSC(CC(=O)CC(SC[C@H](NC(C)=O)C(=O)O)c1cnccn1)c1cnccn1)C(=O)O", "note": "(some centres unmarked) [PB141]", "values": [{"measurement": "Increase in ratio of right ventricular weight to left ventricle plus septum", "value": "significantly reduced"}, {"measurement": "Increase in right ventricular systolic pressure (RVSP)", "value": "significantly smaller"}, {"measurement": "Measures of vascular wall remodeling (α-SMA-positive vessels, muscularization, median wall thickness)", "value": "reduced"}, {"measurement": "Pulmonary arterial pressure", "value": "significantly smaller"}, {"measurement": "Pulmonary vascular resistance", "value": "significantly smaller"}]}]}
